Like-named read-outs stand apart in the source and are kept apart here. One block for each molecule: values may come before it.
What was measured:
VC1:IIC2 [1] = target: T1, VC1:IIC2 (UniProt P26769+P30803); assay: Inhibition of the catalytic activity of purified VC1:IIC2; type: biochemical, mammalian
AC2 [2] = target: T2, AC2 (Rattus norvegicus, UniProt P26769); assay: AC activity assay in Sf9 membranes expressing recombinant AC2; type: biochemical, mammalian
AC1 [3] = target: T3, AC1 (Bos taurus, UniProt P19754); assay: AC activity assay in Sf9 membranes expressing recombinant AC1; type: biochemical, mammalian
AC5 [4] = target: T4, AC5 (Canis lupus familiaris, UniProt P30803); assay: AC activity assay in Sf9 membranes expressing recombinant AC5; type: biochemical, mammalian; details: for Potency difference AC5 versus AC2: comparison of Ki at AC5 versus AC2
VC1:IIC2 [5] = target: T1, VC1:IIC2; details: cited from earlier work
ACs 1, 2 and 5 = details: read-out: Ki for ACs 1, 2 and 5; TNP-nucleotides; cited from earlier work
AC1 [6] = target: T3, AC1; details: read-out: AC1 Ki; Sf9 membranes, 5 mM MnCl2, 100 μM FS; mean ± SD; cited from earlier work
AC2 [7] = target: T2, AC2; details: read-out: AC2 Ki; Sf9 membranes, 5 mM MnCl2, 100 μM FS; mean ± SD; cited from earlier work
AC5 [8] = target: T4, AC5; details: read-out: AC5 Ki; Sf9 membranes, 5 mM MnCl2, 100 μM FS; mean ± SD; cited from earlier work
[9] = VC1:IIC2 Mn2+ + FS + Gsα-GTPγS Ki, maximally stimulated: 10 mM MnCl2, 100 μM FS, 100 μM ATP, mean ± SD
[10] = read-out: AC2 Ki, Sf9 membranes, 5 mM MnCl2, 100 μM FS, mean ± SD
[11] = read-out: AC1 Ki, Sf9 membranes, 5 mM MnCl2, 100 μM FS, mean ± SD
[12] = read-out: VC1:IIC2 Mn2+ + FS + Gsα-GTPγS Ki, maximally stimulated: 10 mM MnCl2, 100 μM FS, Gsα-GTPγS, mean ± SD
[13] = read-out: AC5 Ki, Sf9 membranes, 5 mM MnCl2, 100 μM FS, mean ± SD
[14] = read-out: VC1:IIC2 Mn2+ + FS + Gsα-GTPγS Ki, maximally stimulated: 10 mM MnCl2, 100 μM FS, 100 μM ATP, mean ± SD
[15] = read-out: Ki for VC1:IIC2, TNP-nucleotides

T1 sequence (P30803 398-765 limits assumed): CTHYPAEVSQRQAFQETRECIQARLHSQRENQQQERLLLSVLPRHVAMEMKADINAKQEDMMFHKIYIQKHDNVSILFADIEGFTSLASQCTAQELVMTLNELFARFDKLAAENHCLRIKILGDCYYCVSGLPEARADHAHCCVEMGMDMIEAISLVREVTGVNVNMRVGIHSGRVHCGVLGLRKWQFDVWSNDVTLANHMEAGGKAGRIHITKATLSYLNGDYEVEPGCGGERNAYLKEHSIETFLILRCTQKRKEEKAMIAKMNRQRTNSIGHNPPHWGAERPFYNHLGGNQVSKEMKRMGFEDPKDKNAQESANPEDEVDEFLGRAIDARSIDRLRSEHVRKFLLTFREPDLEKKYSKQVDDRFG
T1 sequence (P26769 821-1090 limits assumed): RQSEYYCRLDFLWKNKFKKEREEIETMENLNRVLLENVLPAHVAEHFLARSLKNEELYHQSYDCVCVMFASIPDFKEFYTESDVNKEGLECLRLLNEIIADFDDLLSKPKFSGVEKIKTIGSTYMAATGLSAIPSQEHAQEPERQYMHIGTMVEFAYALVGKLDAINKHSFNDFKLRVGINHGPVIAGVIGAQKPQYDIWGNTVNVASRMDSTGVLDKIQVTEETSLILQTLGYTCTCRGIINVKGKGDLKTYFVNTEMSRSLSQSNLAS
T1 sequence (P04896 whole entry partner): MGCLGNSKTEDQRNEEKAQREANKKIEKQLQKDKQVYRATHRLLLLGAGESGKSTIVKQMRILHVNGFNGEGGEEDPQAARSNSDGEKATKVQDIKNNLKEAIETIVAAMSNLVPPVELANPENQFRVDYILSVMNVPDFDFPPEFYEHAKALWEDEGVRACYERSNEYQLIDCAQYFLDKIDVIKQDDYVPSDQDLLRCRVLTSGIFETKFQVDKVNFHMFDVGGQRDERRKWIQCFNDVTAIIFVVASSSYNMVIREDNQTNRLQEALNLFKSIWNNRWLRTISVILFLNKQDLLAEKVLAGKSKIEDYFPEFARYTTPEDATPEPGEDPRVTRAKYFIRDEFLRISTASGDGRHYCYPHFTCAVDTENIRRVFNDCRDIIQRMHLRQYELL
T3 sequence (P19754 whole entry): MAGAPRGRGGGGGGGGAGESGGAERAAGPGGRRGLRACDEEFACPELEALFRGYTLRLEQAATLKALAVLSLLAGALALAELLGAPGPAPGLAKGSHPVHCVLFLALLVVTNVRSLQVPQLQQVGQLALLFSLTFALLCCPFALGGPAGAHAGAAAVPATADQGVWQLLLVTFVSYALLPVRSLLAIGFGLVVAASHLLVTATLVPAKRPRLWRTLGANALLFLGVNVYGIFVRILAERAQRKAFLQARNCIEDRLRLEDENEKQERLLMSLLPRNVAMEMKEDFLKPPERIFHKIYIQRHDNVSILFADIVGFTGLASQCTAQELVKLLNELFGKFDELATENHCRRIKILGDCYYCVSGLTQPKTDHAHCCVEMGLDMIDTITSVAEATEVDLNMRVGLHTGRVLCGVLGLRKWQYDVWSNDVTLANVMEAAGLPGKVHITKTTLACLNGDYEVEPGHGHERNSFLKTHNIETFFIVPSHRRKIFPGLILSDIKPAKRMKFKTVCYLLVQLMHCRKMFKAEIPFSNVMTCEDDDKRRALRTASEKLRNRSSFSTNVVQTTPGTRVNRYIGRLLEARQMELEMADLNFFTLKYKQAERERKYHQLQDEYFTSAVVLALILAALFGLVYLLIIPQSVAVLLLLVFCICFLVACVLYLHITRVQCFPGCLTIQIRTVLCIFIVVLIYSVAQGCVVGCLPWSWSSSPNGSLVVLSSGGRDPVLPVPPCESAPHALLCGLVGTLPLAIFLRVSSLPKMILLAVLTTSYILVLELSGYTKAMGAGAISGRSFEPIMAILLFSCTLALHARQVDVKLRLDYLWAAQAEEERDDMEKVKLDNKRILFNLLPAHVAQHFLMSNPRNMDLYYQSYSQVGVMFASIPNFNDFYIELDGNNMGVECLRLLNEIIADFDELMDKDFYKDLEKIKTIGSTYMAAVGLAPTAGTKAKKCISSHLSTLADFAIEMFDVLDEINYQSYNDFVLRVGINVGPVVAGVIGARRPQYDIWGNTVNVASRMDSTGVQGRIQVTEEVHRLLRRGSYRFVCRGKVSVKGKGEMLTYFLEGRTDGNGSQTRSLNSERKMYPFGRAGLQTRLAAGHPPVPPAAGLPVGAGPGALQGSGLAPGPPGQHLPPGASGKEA
T2 sequence (P26769 whole entry): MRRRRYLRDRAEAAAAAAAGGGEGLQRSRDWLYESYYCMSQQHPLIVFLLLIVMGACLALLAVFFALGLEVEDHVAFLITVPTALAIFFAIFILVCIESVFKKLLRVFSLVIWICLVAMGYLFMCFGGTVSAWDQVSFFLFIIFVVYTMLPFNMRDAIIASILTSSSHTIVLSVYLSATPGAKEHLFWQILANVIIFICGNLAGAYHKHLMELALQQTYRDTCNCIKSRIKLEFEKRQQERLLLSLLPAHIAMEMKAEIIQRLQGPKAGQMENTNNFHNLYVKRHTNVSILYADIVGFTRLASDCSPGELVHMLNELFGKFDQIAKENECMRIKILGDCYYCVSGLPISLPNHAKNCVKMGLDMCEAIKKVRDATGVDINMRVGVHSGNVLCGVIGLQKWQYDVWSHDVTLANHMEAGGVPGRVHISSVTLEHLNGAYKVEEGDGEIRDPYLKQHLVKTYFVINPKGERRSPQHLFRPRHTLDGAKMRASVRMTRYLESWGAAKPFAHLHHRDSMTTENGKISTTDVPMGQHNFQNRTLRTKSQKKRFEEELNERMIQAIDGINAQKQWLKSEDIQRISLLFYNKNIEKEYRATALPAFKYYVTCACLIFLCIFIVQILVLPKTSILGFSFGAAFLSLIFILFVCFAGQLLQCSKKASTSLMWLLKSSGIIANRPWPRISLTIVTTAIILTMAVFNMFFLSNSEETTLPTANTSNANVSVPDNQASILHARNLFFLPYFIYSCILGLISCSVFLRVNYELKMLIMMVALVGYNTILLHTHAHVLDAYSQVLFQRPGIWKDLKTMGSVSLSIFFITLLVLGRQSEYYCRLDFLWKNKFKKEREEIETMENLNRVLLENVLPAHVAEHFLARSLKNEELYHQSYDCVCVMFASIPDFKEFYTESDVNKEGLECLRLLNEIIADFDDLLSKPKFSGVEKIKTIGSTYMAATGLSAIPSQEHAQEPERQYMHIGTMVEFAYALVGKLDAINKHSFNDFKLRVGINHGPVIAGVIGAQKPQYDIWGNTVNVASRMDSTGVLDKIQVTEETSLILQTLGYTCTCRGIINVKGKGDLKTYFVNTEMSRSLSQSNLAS
T4 sequence (P30803 whole entry): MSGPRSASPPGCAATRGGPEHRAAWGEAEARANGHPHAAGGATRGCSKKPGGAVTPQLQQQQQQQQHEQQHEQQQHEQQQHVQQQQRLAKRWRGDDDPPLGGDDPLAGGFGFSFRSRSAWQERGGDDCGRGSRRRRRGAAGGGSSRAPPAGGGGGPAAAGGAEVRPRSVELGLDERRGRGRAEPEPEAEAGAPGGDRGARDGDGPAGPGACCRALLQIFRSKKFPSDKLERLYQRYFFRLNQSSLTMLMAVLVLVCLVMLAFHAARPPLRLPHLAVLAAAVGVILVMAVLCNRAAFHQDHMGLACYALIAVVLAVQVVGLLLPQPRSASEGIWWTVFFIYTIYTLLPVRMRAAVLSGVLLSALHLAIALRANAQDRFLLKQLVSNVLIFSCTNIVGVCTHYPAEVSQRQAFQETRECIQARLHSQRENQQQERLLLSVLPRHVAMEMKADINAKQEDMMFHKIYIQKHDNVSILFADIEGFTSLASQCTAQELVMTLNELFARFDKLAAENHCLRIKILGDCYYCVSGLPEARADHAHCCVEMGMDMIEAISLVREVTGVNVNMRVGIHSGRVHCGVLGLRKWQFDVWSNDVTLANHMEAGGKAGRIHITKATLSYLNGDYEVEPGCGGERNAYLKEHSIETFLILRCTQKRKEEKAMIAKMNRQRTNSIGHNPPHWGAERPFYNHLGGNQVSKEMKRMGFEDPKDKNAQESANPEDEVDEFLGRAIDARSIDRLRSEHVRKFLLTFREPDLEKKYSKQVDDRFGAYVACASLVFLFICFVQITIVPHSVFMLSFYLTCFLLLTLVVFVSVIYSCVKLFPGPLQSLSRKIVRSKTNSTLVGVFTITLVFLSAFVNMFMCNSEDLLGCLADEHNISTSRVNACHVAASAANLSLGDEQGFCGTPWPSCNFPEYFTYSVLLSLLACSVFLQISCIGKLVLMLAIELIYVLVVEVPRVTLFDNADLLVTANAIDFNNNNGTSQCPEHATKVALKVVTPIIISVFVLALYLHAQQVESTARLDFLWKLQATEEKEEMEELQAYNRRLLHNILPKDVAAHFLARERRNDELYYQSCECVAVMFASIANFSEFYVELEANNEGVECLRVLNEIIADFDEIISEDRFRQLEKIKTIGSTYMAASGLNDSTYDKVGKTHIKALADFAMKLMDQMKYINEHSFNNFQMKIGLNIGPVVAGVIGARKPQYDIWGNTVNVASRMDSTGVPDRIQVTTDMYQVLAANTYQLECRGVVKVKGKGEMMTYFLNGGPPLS

Molecule: CNc1ccccc1C(=O)O[C@@H]1C[C@@H](COP(=O)(O)OP(=O)(O)OP(=O)(O)O)O[C@H]1n1cnc2c(=O)[nH]c(N)nc21 [compound 3, 3’-deoxy-2’-O-(N-methylanthraniloyl)-guanosine 5’-triphosphate]
Ki (VC1:IIC2 [1]; [9]): 350 ± 43 nM
Ki (AC2 [2]): 8700 nM
Ki (AC1 [3]): 1800 nM
Ki (AC5 [4]): 1800 nM

Molecule: CNc1ccccc1C(=O)O[C@H]1C[C@H](n2cnc3c(N)ncnc32)O[C@@H]1COP(=O)(O)OP(=O)(O)OP(=O)(O)O [compound 6, 2’-deoxy-3’-O-(N-methylanthraniloyl)-adenosine 5’-triphosphate]
Ki (VC1:IIC2 [1]; [9]): 190 ± 3.4 nM
Ki (AC2 [2]): 4800 nM
Ki (AC1 [3]): 320 ± 19 nM
Ki (AC5 [4]): 360 ± 54 nM
Potency difference AC5 versus AC2 (AC5 [4]): > 10 fold

Molecule: 2’,3’-O-(N-methylanthraniloyl)-guanosine 5’-triphosphate [compound 1]
Ki (AC2 [2]; [10]): 610 ± 70 nM
Ki (AC1 [3]; [11]): 90 ± 18 nM
Ki (VC1:IIC2 [5]; [12]): 18 ± 6 nM
Potency difference AC5 versus AC2 (AC5 [4]): > 10 fold
Ki (AC5 [4]; [13]): 53 ± 12 nM

Molecule: CNc1ccccc1C(=O)O[C@H]1C[C@H](n2cnc3c(=O)[nH]c(N)nc32)O[C@@H]1COP(=O)(O)OP(=O)(O)OP(=O)(O)O [compound 2, 2’-deoxy-3’-O-(N-methylanthraniloyl)-guanosine 5’-triphosphate]
Ki (AC2 [2]): 1300 ± 210 nM
Ki (AC1 [3]): 270 ± 30 nM
Ki (AC5 [4]): 410 ± 35 nM

Molecule: 2’,3’-O-(2,4,6-trinitrophenyl)-CTP [reference compound]
Ki (VC1:IIC2 [5]; [15]): 100 to 300 nM
Ki (ACs 1, 2 and 5): 10 to 100 nM

Molecule: 2’,3’-O-(2,4,6-trinitrophenyl)-UTP [reference compound]
Ki (VC1:IIC2 [5]; [15]): 100 to 300 nM
Ki (ACs 1, 2 and 5): 10 to 100 nM

Molecule: 2’,3’-O-(N-methylanthraniloyl)-adenosine 5’-triphosphate [compound 5]
Ki (AC1 [6]): 150 ± 40 nM

Further lines, with some results ahead:

Ki (AC2 [2]; [10]): 640 ± 70 nM
Ki (AC1 [3]; [11]): 130 ± 20 nM
Molecule: 2’,3’-O-anthraniloyl-adenosine 5’-triphosphate [compound 14]

Ki (AC2 [2]; [10]): 3000 nM
Ki (AC1 [3]; [11]): 1100 nM
Ki (AC5 [4]; [13]): 1300 nM
Molecule: 2’,3’-O-(N-methylanthraniloyl)-xanthosine 5’-triphosphate [compound 10]
Ki (VC1:IIC2 [5]; [12]): 1200 nM

Ki (VC1:IIC2 [1]; [14]): 10 ± 1.7 nM
Molecule: 2’,3’-O-anthraniloyl-guanosine 5’-triphosphate [compound 13]

Ki (VC1:IIC2 [1]; [14]): 24 ± 4.1 nM
Ki (AC2 [2]; [10]): 370 ± 81 nM
Ki (AC1 [3]; [11]): 63 ± 17 nM
Ki (AC5 [4]; [13]): 34 ± 8 nM
Molecule: 2’,3’-O-(N-methylanthraniloyl)-guanosine 5’-[γ-thio]triphosphate [compound 4]

Ki (VC1:IIC2 [1]; [9]): 90 ± 2.2 nM
Ki (AC2 [2]): 540 ± 20 nM
Ki (AC1 [3]): 470 ± 20 nM
Ki (AC5 [4]): 65 ± 5 nM
Molecule: CNc1ccccc1C(=O)O[C@@H]1C[C@@H](COP(=O)(O)OP(=O)(O)OP(=O)(O)O)O[C@H]1n1cnc2c(N)ncnc21 [compound 7, 3’-deoxy-2’-O-(N-methylanthraniloyl)-adenosine 5’-triphosphate]

Ki (AC2 [2]; [10]): 2900 nM
Ki (AC1 [3]; [11]): 860 ± 10 nM
Molecule: 2’,3’-O-anthraniloyl-adenosine 5’-diphosphate [compound 15]

Ki (VC1:IIC2 [1]; [14]): 6.1 ± 1.3 nM
Ki (AC2 [2]; [10]): 460 ± 60 nM
Ki (AC1 [3]; [11]): 46 ± 4 nM
Potency difference AC5 versus AC2 (AC5 [4]): > 10 fold
Ki (AC5 [4]; [13]): 32 ± 2 nM
Molecule: 2’,3’-O-(N-methylanthraniloyl)-uridine 5’-triphosphate [compound 11]

Ki (VC1:IIC2 [1]; [14]): 9.2 ± 1.5 nM
Molecule: 2’(3’)-O-(N-methylanthraniloyl)-cytidine 5’-triphosphate [compound 12]
Ki (AC1 [6]): 150 ± 30 nM
Ki (AC2 [7]): 690 ± 20 nM
Ki (AC5 [8]): 150 ± 30 nM
